{
  "source": "patent US6497904B2",
  "about": "“Treatment of oncologic tumors with an injectable formulation of a golgi apparatus disturbing agent” (priority 1998, dated 2002)",
  "key": {"[1]": {"tested_on": "Erlich tumors", "experiment": "In vivo efficacy (delay in tumor growth, T/C) in Balb/C mice carrying Erlich tumors", "experimental": "For each of the following examples, the pharmaceutical formulations were prepared just prior to use. Various amounts of brefeldin A (mg of drug/kg animal's body weight) were weighed out and varying amounts of solvent was used to mix the drug. The mixtures were either vortexed (mechanical mixing) or sonicated until drug was either completely soluble or only a very small amount appeared to settle in the bottom the test tube. Chitin was then added and the mixture was sonicated.\nSix days following inoculation, the mice normally grew a tumor on each flank, ranging in size from 100 to 120 mm^3. The mice (average weight=25 g) were randomized and separated into groups. Each tumor was then measured and the tumor volume calculated and recorded. In experimental groups, one tumor on each mouse was treated with the appropriate agent (drug versus drug in formulation) with an injection volume of 50 ul using a 22G½ needle. The control group was left untreated.\nAntitumor activity was determined by inhibition of tumor growth and survival rate. Each tumor was measured two to three times per week. In nude mice, tumors were measured for 10 days or until mice survived. In Balb/C tumors were measured for up to 20 days following treatment. The volume of the tumor was calculated and recorded. Tumor volume data is analyzed by using simple regression model. […]\nBalb/C mice are divided into groups and given treatments according to Table 4. Mice are observed daily to evaluate lethal toxicity and tumors are measured on alternate days for 20 days. […]"}, "[2]": {"tested_on": "Balb/C mice", "experiment": "Survival of Balb/C mice following treatment (deaths due to toxicity)", "format": "in vivo", "conditions": "Example 3", "source_text": "Balb/C mice are divided into groups and given treatments according to Table 3. Mice are observed daily for 25 days for deaths due to toxicity.\nBalb/C mice are divided into groups and given treatments according to Table 7."}},
  "data": [
    {"smiles": "C[C@H]1CCC/C=C/[C@@H]2C[C@H](O)C[C@H]2[C@H](O)/C=C/C(=O)O1", "note": "[brefeldin A]", "values": [
      {"measurement": "T/C ratio of delay in tumor growth", "setting": "[1]; Example 2, groups 5, 6, and 7, given with the solvent (DMA 5-20 μl), no chitin", "value": "1.25-1.75"},
      {"measurement": "T/C ratio of delay in tumor growth", "setting": "[1]; Example 2, groups 8, 9, and 10, delivered with DMA (5-20 μl) and chitin", "value": "2.00-2.75"},
      {"measurement": "T/C ratio of delay in tumor growth", "setting": "[1]; Example 4, groups 4, 5, and 6, BFA 2 mg delivered with DMA and chitin", "value": "2.50-2.85"},
      {"measurement": "T/C ratio of delay in tumor growth", "setting": "[1]; Example 4, groups 7, 8, and 9, decreased dose of brefeldin A (0.5 mg) with DMA and chitin", "value": "2.30-2.55"},
      {"measurement": "toxicity to mice", "setting": "[2]; high doses (80 mg/kg and 40 mg/kg) with DMA, groups 4 and 8", "value": "most toxic"},
      {"measurement": "toxicity to mice", "setting": "[2]; when chitin is added to the formulation (with DMA)", "value": "less toxicity"}
    ]}
  ]
}
